Measured values as given in patent US20240009121A1, “PHARMACEUTICAL COMPOSITION CONTAINING NEUROACTIVE STEROID AND USE THEREOF” (Brii Biosciences, Inc., priority 2020, published 2024).
Where two headings read alike, the source gives them in different places.

Key:
[1] = brexanolone IV at the MRHD of 90 μg/kg/h; cited from earlier work
[2] = dog, 14-day continuous IV infusion, 36 mg/kg/day, cited from earlier work
[3] = tested on: rat; conditions: single IV slow bolus, cited from earlier work
[4] = 28-day continuous IV infusion, cited from earlier work
[5] = tested on: Beagle dogs; conditions: dog, cited from earlier work
[6] = tested on: dog; conditions: single IV slow bolus, cited from earlier work
[7] = Single IV infusion PK of brexanolone in dogs; assay type: in vivo; conditions: male Beagle dog; single IV infusion 2.0 mg/kg over 30 minutes; mean
Method: (§1) Following a single IV infusion in rats (1.0 mg/kg) and dogs (2.0 mg/kg) over 30 minutes, the PK parameters in Table 2 were obtained.
(§2) In the rat and dog PK studies including brexanolone IV infusion and IM administrations, brexanolone was quantified in rat and dog plasma using a sensitive and specific analytical procedure. Analytes were separated by liquid chromatography (LC) and brexanolone was detected by positive mode electrospray tandem mass spectrometry (MS/MS). The lower limit of quantitation (LLOQ) was 1.0 to 3.0 ng/mL. In the GLP study, LLOQ was 1.0 ng/mL in the rat.
(§3) Intravenous dosing of brexanolone was performed through a 30-min infusion via the jugular vein cannula (JVC) or a temporary percutaneous catheter placed into a lateral tail vein in rats, and via the cephalic vein in dogs. Different suspension formulations were also dosed intramuscularly into the rats and dogs in accordance with test facility standard operating procedures. At the designated time points, blood was collected via direct venipuncture of a cephalic or jugular vein in rats and via the cephalic or saphenous vein in dog. Blood was transferred into collection tubes containing K2EDTA anticoagulant and stored on ice until processed. Blood was processed for plasma by centrifugation. Plasma was then transferred into a 96-well container and stored in a freezer maintained at approximately −70° C. The quantitative analyses of the resulted plasma samples were conducted using a qualified LC-MS/MS method.

[8] = tested on: rats; conditions: rat, cited from earlier work
[9] = 28-day continuous IV infusion, cited from earlier work; remark: listed apart in the source
[10] = rat, 14-day continuous IV infusion, 18 mg/kg/day, cited from earlier work
[11] = tested on: dog; conditions: cited from earlier work
[12] = tested on: Sprague Dawley rats; conditions: rat, cited from earlier work
[13] = Single IV infusion PK of brexanolone in rats; assay type: in vivo; conditions: male Sprague Dawley rat; single IV infusion 1.0 mg/kg over 30 minutes; mean
Method: as §1, §2, §3

[14] = 28-day continuous IV infusion, 12, 36, 72 mg/kg/day
[15] = 5-day continuous IV infusion study
[16] = 28-day continuous IV infusion, 10, 30, 60 mg/kg/day

Substance: 1-(3R,5S,8R,9S,10S,13S,14S,17S)-3-hydroxy-10,13-dimethylhexadecahydro-1H-cyclopenta[a]phenanthren-17-yl) ethan-1-one [brexanolone]
- human exposure AUC0-24h [1]: 1800 ng·h/mL
- human exposure Css [1]: 74.3 ng/mL
- AUC0-24h at NOAEL ([2]; females): 3840 ng·h/mL
- Cmax at NOAEL ([2]; females): 210 ng/mL
- AUC0-24h at NOAEL ([2]; males): 3560 ng·h/mL
- Cmax at NOAEL ([2]; males): 201 ng/mL
- single bolus dose at which rapid anesthesia (within 1 minute) was observed ([3]; doses ≤50 mg/kg): ≥ 10 mg/kg
- maximum tolerated dose (MTD) for slow bolus administration ([3]; shallow respiration and death of one male at 50 mg/kg): 30 mg/kg
- AUC0-24 h (= AUC0-672 h/28) ([4]; dog F, 12 mg/kg/day): 1820 ng·h/mL
- Cmax ([4]; dog F, 12 mg/kg/day): 97.3 ng/mL
- Css (= AUC0-672 h/672 h) ([4]; dog F, 12 mg/kg/day): 75.9 ng/mL
- AUC0-24 h (= AUC0-672 h/28) ([4]; dog F, 36 mg/kg/day): 6960 ng·h/mL
- Cmax ([4]; dog F, 36 mg/kg/day): 338 ng/mL
- Css (= AUC0-672 h/672 h) ([4]; dog F, 36 mg/kg/day): 290 ng/mL
- AUC0-24 h (= AUC0-672 h/28) ([4]; dog F, 72 mg/kg/day): 11300 ng·h/mL
- Cmax ([4]; dog F, 72 mg/kg/day): 571 ng/mL
- Css (= AUC0-672 h/672 h) ([4]; dog F, 72 mg/kg/day): 471 ng/mL
- AUC0-24 h (= AUC0-672 h/28) ([4]; dog M, 12 mg/kg/day): 1680 ng·h/mL
- Cmax ([4]; dog M, 12 mg/kg/day): 89.3 ng/mL
- Css (= AUC0-672 h/672 h) ([4]; dog M, 12 mg/kg/day): 69.9 ng/mL
- AUC0-24 h (= AUC0-672 h/28) ([4]; dog M, 36 mg/kg/day): 5760 ng·h/mL
- Cmax ([4]; dog M, 36 mg/kg/day): 310 ng/mL
- Css (= AUC0-672 h/672 h) ([4]; dog M, 36 mg/kg/day): 240 ng/mL
- AUC0-24 h (= AUC0-672 h/28) ([4]; dog M, 72 mg/kg/day): 12900 ng·h/mL
- Cmax ([4]; dog M, 72 mg/kg/day): 708 ng/mL
- Css (= AUC0-672 h/672 h) ([4]; dog M, 72 mg/kg/day): 538 ng/mL
- exposure at NOAEL relative to the human exposure at the MRHD ([5]; 12 mg/kg/day vs human 90 μg/kg/h): equivalent to the human exposure
- mortality [5, 14]: no test article- or vehicle-related mortalities
- test article-related clinical signs [5, 14]: limited to one male dosed with 36 mg/kg which had a convulsion occurring 4 days after completing the 28-day infusion
- NOAEL ([5]; 28-day continuous IV infusion, based on convulsion in one 36 mg/kg dog and SBECD-related renal tubular vacuolation at ≥36 mg/kg): 12 mg/kg/day
- single bolus dose at which rapid anesthesia (within 1 minute) was observed ([6]; doses ≤30 mg/kg): ≥ 7.5 mg/kg
- MTD for slow bolus administration ([6]; irregular breathing in 1 of 4 dogs at 30 mg/kg): 20 mg/kg
- AUC0-inf [7]: 289 ng·h/mL
- AUC0-t [7]: 283 ng·h/mL
- CL [7]: ~7.22 L/h/kg
- MRTinf [7]: 26.5 min
- T1/2 [7]: ~1.69 h
- Vss [7]: ~2.99 L/kg
- MTD [8, 15]: 120 mg/kg/day
- NOAEL for poor clinical condition resulting in premature euthanasia ([8]; 14-day continuous IV infusion study): 18 mg/kg/day
- AUC0-24 h (= AUC0-672 h/28) ([9]; rat F, 10 mg/kg/day): 1410 ng·h/mL
- Cmax ([9]; rat F, 10 mg/kg/day): 63.1 ng/mL
- Css (= AUC0-672 h/672 h) ([9]; rat F, 10 mg/kg/day): 58.8 ng/mL
- AUC0-24 h (= AUC0-672 h/28) ([9]; rat F, 30 mg/kg/day): 4320 ng·h/mL
- Cmax ([9]; rat F, 30 mg/kg/day): 219 ng/mL
- Css (= AUC0-672 h/672 h) ([9]; rat F, 30 mg/kg/day): 180 ng/mL
- AUC0-24 h (= AUC0-672 h/28) ([9]; rat F, 60 mg/kg/day): 8110 ng·h/mL
- Cmax ([9]; rat F, 60 mg/kg/day): 441 ng/mL
- Css (= AUC0-672 h/672 h) ([9]; rat F, 60 mg/kg/day): 338 ng/mL
- AUC0-24 h (= AUC0-672 h/28) ([9]; rat M, 10 mg/kg/day): 1790 ng·h/mL
- Cmax ([9]; rat M, 10 mg/kg/day): 93.8 ng/mL
- Css (= AUC0-672 h/672 h) ([9]; rat M, 10 mg/kg/day): 74.4 ng/mL
- AUC0-24 h (= AUC0-672 h/28) ([9]; rat M, 30 mg/kg/day): 4890 ng·h/mL
- Cmax ([9]; rat M, 30 mg/kg/day): 233 ng/mL
- Css (= AUC0-672 h/672 h) ([9]; rat M, 30 mg/kg/day): 204 ng/mL
- AUC0-24 h (= AUC0-672 h/28) ([9]; rat M, 60 mg/kg/day): 9960 ng·h/mL
- Cmax ([9]; rat M, 60 mg/kg/day): 464 ng/mL
- Css (= AUC0-672 h/672 h) ([9]; rat M, 60 mg/kg/day): 415 ng/mL
- AUC0 24 h at NOAEL ([10]; females): 1790 ng·h/mL
- Cmax at NOAEL ([10]; females): 111 ng/mL
- AUC0 24 h at NOAEL ([10]; males): 2910 ng·h/mL
- Cmax at NOAEL ([10]; males): 196 ng/mL
- MTD [11, 15]: 60 mg/kg/day
- NOAEL ([11]; 14-day continuous IV infusion study, convulsion in one female at 72 mg/kg/day): 36 mg/kg/day
- body weight gain compared to vehicle controls ([12]; females, 30 mg/kg/day, Day 7 to 28): 138%
- body weight gain compared to vehicle controls ([12]; females, 30 mg/kg/day, Day −1 to 7): 160%
- body weight gain compared to vehicle controls ([12]; females, 60 mg/kg/day, Day 7 to 28): 123%
- body weight gain compared to vehicle controls ([12]; females, 60 mg/kg/day, Day −1 to 7): 193%
- body weight gain compared to vehicle controls ([12]; males, 10 mg/kg/day, first 7 days): 126%
- body weight gain compared to vehicle controls ([12]; males, 30 mg/kg/day, first 7 days): 126%
- body weight gain compared to vehicle controls ([12]; males, 60 mg/kg/day, Day 7 to 28): 71%
- body weight gain compared to vehicle controls ([12]; males, 60 mg/kg/day, first 7 days): 132%
- exposure at NOAEL as multiple of the human exposure at the MRHD ([12]; 60 mg/kg/day vs human 90 μg/kg/h): 5 times
- mortality [12, 16]: no test article or vehicle-related mortalities
- test article related clinical observations [12, 16]: No test article related clinical observations were noted
- NOAEL ([12]; 28-day continuous IV infusion): 60 mg/kg/day
- AUC0-inf [13]: 177 ng·h/mL
- AUC0-t [13]: 175 ng·h/mL
- MRTinf [13]: 21.5 min
